What was measured:
60 cancer cell lines = assay: NCI 60-cell screen, SRB, whole panel (mean, delta, range); type: cell-based; conditions: 10^−5 molar, 48 hours, SRB; for Growth percent, Delta: delta over the cell panel; for Growth percent, Range: range over the cell panel
HOP-62 = type: cell-based; conditions: Non-small cell lung cancer; 10^−5 molar; 48 hours; SRB

In the case of `COc1ccccc1CNc1nc2ccccc2c2c(=O)c3cc(Cl)ccc3sc12` [Compound N28, 10-Chloro-6-((2-methoxybenzyl)amino)-12H-thiochromeno[2,3-c]quinolin-12-one], the melting point is reported as 223 to 224 °C.

`O=C1CCCCN1c1nc2ccccc2c2c(=O)c3cc(Cl)ccc3sc12` [Compound 21, 10-chloro-6-(2-oxopiperidin-1-yl)-12H-thiochromeno[2,3-c]quinolin-12-one] showed a melting point of 258 to 261 °C.

With `NC(N)=Nc1nc2ccccc2c2c(=O)c3cc(Cl)ccc3sc12` [Compound N33, 2-(10-Chloro-12-oxo-12H-thiochromeno[2,3-c]quinolin-6-yl)guanidine] the melting point was 370 °C (dec.).

Molecule `O=c1c2cc(Cl)ccc2sc2c(NCc3cccs3)nc3ccccc3c12` [Compound N23, 10-Chloro-6-((thiophen-2-ylmethyl)amino)-12H-thiochromeno[2,3-c]quinolin-12-one] has a melting point of 178 to 180 °C.

For `O=c1c2cc(Cl)ccc2sc2c(N3CCC(N4CCCCC4)CC3)nc3ccccc3c12` [Compound 18, 6-([1,4′-Bipiperidin]-1′-yl)-10-chloro-12H-thiochromeno[2,3-c]quinolin-12-one], the melting point was 187 to 189 °C.

In the case of `CCN1CCN(c2nc3ccccc3c3c(=O)c4cc(Cl)ccc4sc23)CC1` [Compound 9, 10-Chloro-6-(4-ethylpiperazin-1-yl)-12H-thiochromeno[2,3-c]quinolin-12-one], the melting point is reported as 196 to 198 °C.

`O=c1c2cc(Cl)ccc2sc2c(NN3CCCCC3)nc3ccccc3c12` [Compound N34, 10-Chloro-6-(piperidin-1-ylamino)-12H-thiochromeno[2,3-c]quinolin-12-one] gave a melting point of 180 to 181 °C.

For `O=c1c2cc(Cl)ccc2sc2c(O)nc3ccccc3c12` [Compound 4, 10-Chloro-6-hydroxy-12H-thiochromeno[2,3-c]quinolin-12-one], the “Growth percent, Delta” value (60 cancer cell lines) was 30.54%, the “Growth percent, Range” value (60 cancer cell lines) was 50.31% and the melting point was over 410 °C.

With `O=C(O)c1c(Sc2ccc(Cl)cc2)c(O)nc2ccccc12` [Compound 2, 3-((4-Chlorophenyl)thio)-2-hydroxyquinoline-4-carboxylic acid] the “Growth percent, Delta” value (60 cancer cell lines) was 33.20%, the “Growth percent, Range” value (60 cancer cell lines) was 55.29% and the melting point was 306 to 308 °C.

In the case of `COc1ccc(CNc2nc3ccccc3c3c(=O)c4cc(Cl)ccc4sc23)cc1OC` [Compound N29, 10-Chloro-6-((3,4-dimethoxybenzyl)amino)-12H-thiochromeno[2,3-c]quinolin-12-one], the melting point is reported as 251 to 252 °C.

Molecule `O=c1c2cc(Cl)ccc2sc2c(NCC3CCCCC3)nc3ccccc3c12` [Compound N24, 10-Chloro-6-((cyclohexylmethyl)amino)-12H-thiochromeno[2,3-c]quinolin-12-one] has a melting point of 165 to 166 °C.

In the case of `O=c1c2cc(Cl)ccc2sc2c(N3CCN(c4ccccc4)CC3)nc3ccccc3c12` [Compound 12, 10-Chloro-6-(4-phenylpiperazin-1-yl)-12H-thiochromeno[2,3-c]quinolin-12-one], the “Growth percent, Delta” value (60 cancer cell lines) is reported as 35.45%, the “Growth percent, Range” value (60 cancer cell lines) is reported as 60.10% and the melting point is reported as 236 to 237 °C.

With `CCCCNc1nc2ccccc2c2c(=O)c3cc(Cl)ccc3sc12` [Compound N4, 6-(Butylamino)-10-chloro-12H-thiochromeno[2,3-c]quinolin-12-one] the melting point was 147 to 149 °C.

For `O=c1c2cc(Cl)ccc2sc2c(N3CCOCC3)nc3ccccc3c12` [Compound 13, 10-Chloro-6-morpholino-12H-thiochromeno[2,3-c]quinolin-12-one], the “Growth percent, Delta” value (60 cancer cell lines) was 50.85%, the “Growth percent, Range” value (60 cancer cell lines) was 79.17% and the melting point was 217 to 218 °C.

In the case of `O=c1c2cc(Cl)ccc2sc2c(N3CCCCC3)nc3ccccc3c12` [Compound 15, 10-Chloro-6-(piperidin-1-yl)-12H-thiochromeno[2,3-c]quinolin-12-one], the melting point is reported as 187 to 188 °C.

Work on `CC(C)CNc1nc2ccccc2c2c(=O)c3cc(Cl)ccc3sc12` [Compound N5, 10-Chloro-6-isobutylamino-12H-thiochromeno[2,3-c]quinolin-12-one] yielded a melting point of 159 to 160 °C.

In the case of `CN(C)c1nc2ccccc2c2c(=O)c3cc(Cl)ccc3sc12` [Compound 6, 10-Chloro-6-dimethylamino-12H-thiochromeno[2,3-c]quinolin-12-one], the “Growth percent, Delta” value (60 cancer cell lines) is reported as 65.30%, the “Growth percent, Range” value (60 cancer cell lines) is reported as 93.93% and the melting point is reported as 194 to 195 °C.

In the case of `O=c1c2cc(Cl)ccc2sc2c(N3CCN(CCO)CC3)nc3ccccc3c12` [Compound 10, 10-Chloro-6-(4-(2-hydroxyethyl)piperazin-1-yl)-12H-thiochromeno[2,3-c]quinolin-12one], the “Growth percent, Delta” value (60 cancer cell lines) is reported as 48.59%, the “Growth percent, Range” value (60 cancer cell lines) is reported as 83.73% and the melting point is reported as 211 to 213 °C.

`O=c1c2cc(Cl)ccc2sc2c(N3CCC(CCCC4CCNCC4)CC3)nc3ccccc3c12` [Compound 19, 10-Chloro-6-(4-(3-(piperidin-4-yl)propyl)piperidin-1-yl)-12H-thiochromeno[2,3-c]quinolin-12-one] showed a melting point of 164 to 165 °C.

Work on `O=c1c2cc(Cl)ccc2sc2c(NCc3ccccn3)nc3ccccc3c12` [Compound N26, 10-Chloro-6-((pyridin-2-ylmethyl)amino)-12H-thiochromeno[2,3-c]quinolin-12-one] yielded a melting point of 187 to 189 °C.

Molecule `O=c1c2cc(Cl)ccc2sc2c(N3CCC(Cc4ccccc4)CC3)nc3ccccc3c12` [Compound 17, 6-(4-Benzylpiperidin-1-yl)-10-chloro-12H-thiochromeno[2,3-c]quinolin-12-one] has a melting point of 184 to 185 °C.

`O=c1c2cc(Cl)ccc2sc2c(N3CCSCC3)nc3ccccc3c12` [Compound 14, 10-Chloro-6-thiomorpholino-12H-thiochromeno[2,3-c]quinolin-12-one] gave a melting point of 219 to 220 °C.

With `CN1CCN(c2nc3ccccc3c3c(=O)c4cc(Cl)ccc4sc23)CC1` [Compound 8, 10-Chloro-6-(4-methylpiperazin-1-yl)-12H-thiochromeno[2,3-c]quinolin-12-one] the “Growth percent, Delta” value (60 cancer cell lines) was 68.64%, the “Growth percent, Range” value (60 cancer cell lines) was 92.74% and the melting point was 212 to 214 °C.

Work on `O=c1c2cc(Cl)ccc2sc2c(NC3Cc4ccccc4C3)nc3ccccc3c12` [Compound N20, 10-Chloro-6-((2,3-dihydro-1H-inden-2-yl)amino)-12H-thiochromeno[2,3-c]quinolin-12-one] yielded a melting point of 251 to 252 °C.

`CCCNc1nc2ccccc2c2c(=O)c3cc(Cl)ccc3sc12` [Compound N3, 10-Chloro-6-propylamino-12H-thiochromeno[2,3-c]quinolin-12-one] showed a melting point of 178 to 179 °C.

`O=c1c2cc(Cl)ccc2sc2c(N3CCCC3)nc3ccccc3c12` [Compound 20, 10-Chloro-6-(pyrrolidin-1-yl)-12H-thiochromeno[2,3-c]quinolin-12-one] gave a melting point of 170 to 171 °C.

For `COc1nc2ccccc2c2c(=O)c3cc(Cl)ccc3sc12` [Compound 5, 10-Chloro-6-methoxy-12H-thiochromeno[2,3-c]quinolin-12-one], the “Growth percent, Delta” value (60 cancer cell lines) was 39.82%, the “Growth percent, Range” value (60 cancer cell lines) was 61.02% and the “Growth percent HOP-62” value (HOP-62) was 96.64%. It also gave a melting point of 227 to 228 °C.

With `O=c1c2cc(Cl)ccc2sc2c(N3CCC(O)CC3)nc3ccccc3c12` [Compound 16, 10-Chloro-6-(4-hydroxypiperidin-1-yl)-12H-thiochromeno[2,3-c]quinolin-12-one] the melting point was 224 to 225 °C.

Work on `O=c1c2cc(Cl)ccc2sc2c(NC3CCN(Cc4ccccc4)CC3)nc3ccccc3c12` [Compound N22, 6-((1-Benzylpiperidin-4-yl)amino)-10-chloro-12H-thiochromeno[2,3-c]quinolin-12-one] yielded a melting point of 194 to 196 °C.

Reference: patent US8927717B1, “Thiochromeno[2,3-c]quinolin-12-one derivatives, preparation method and application thereof” (National Defense Medical Center, priority 2014, dated 2015)
